Earlier results on one compound are cited in paper PMC3170264 (Retrovirology, 2011).

In this data set the test system is Y143 mutant HIV-1 integrase. To be noted: cited from earlier work.

With `COc1cc2c(cc1Cc1cccc(Cl)c1F)c(=O)c(C(=O)O)cn2[C@H](CO)C(C)C` [elvitegravir], the “activity against Y143 mutant HIV-1 integrase” value is given as “fully active”.
